# Data as given in US20230278972A1, “SUBSTITUTED HALOALKYL SULFONANILIDE HERBICIDES” (FMC Corporation, priority 2020, published 2023).
# Tests used:
# Format in all cases: in vivo
# [1] = tested on: barnyardgrass (Echinochloa crus-galli); test: Test A preemergence, barnyardgrass; conditions: Preemergence; for Barnyardgrass plant response rating: 125 g ai/ha, visual injury on 0 to 100 scale (0 no effect, 100 complete control), approximately 10 days; for Plant response rating, Barnyardgrass: 0 to 100 scale (0 no effect, 100 complete control)
# Outline: (§1)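 Test chemicals, formulated in a non-phytotoxic solvent mixture with surfactant, were sprayed postemergence on plants 2 to 10 cm tall at the one- to two-leaf stage. Preemergence treatment was a directed soil spray onto freshly seeded pots. Both used a loam soil and sand blend.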
# kochia (Bassia scoparia) [2] = test: Test A preemergence, kochia; conditions: Preemergence; for Kochia plant response rating: 125 g ai/ha, visual injury on 0 to 100 scale (0 no effect, 100 complete control), approximately 10 days; for Plant response rating, Kochia: 0 to 100 scale (0 no effect, 100 complete control)
# Outline: as §1
# [3] = tested on: ragweed (common ragweed, Ambrosia artemisiifolia); test: Test A preemergence, ragweed; conditions: Preemergence; for Ragweed plant response rating: 125 g ai/ha, visual injury on 0 to 100 scale (0 no effect, 100 complete control), approximately 10 days; for Plant response rating, Ragweed: 0 to 100 scale (0 no effect, 100 complete control)
# Outline: as §1
# [4] = tested on: Ryegrass, Italian (Italian ryegrass, Lolium multiflorum); test: Test A preemergence, Ryegrass, Italian; conditions: Preemergence; for Ryegrass, Italian plant response rating: 125 g ai/ha, visual injury on 0 to 100 scale (0 no effect, 100 complete control), approximately 10 days; for Plant response rating, Ryegrass, Italian: 0 to 100 scale (0 no effect, 100 complete control)
# Outline: as §1
# [5] = tested on: Foxtail, Giant (giant foxtail, Setaria faberi); test: Test A preemergence, Foxtail, Giant; conditions: Preemergence; for Foxtail, Giant plant response rating: 125 g ai/ha, visual injury on 0 to 100 scale (0 no effect, 100 complete control), approximately 10 days; for Plant response rating, Foxtail, Giant: 0 to 100 scale (0 no effect, 100 complete control)
# Outline: as §1
# [6] = tested on: pigweed (Amaranthus retroflexus); test: Test A preemergence, pigweed; conditions: for Pigweed plant response rating: 125 g ai/ha, visual injury on 0 to 100 scale (0 no effect, 100 complete control), approximately 10 days; for Plant response rating, Pigweed: 0 to 100 scale (0 no effect, 100 complete control)
# Outline: (§2)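 Postemergence ratings come from foliar sprays onto one- to two-leaf plants of 2 to 10 cm grown in loam/sand; preemergence ratings come from a directed spray onto the soil of newly seeded pots. Formulation was a surfactant-containing non-phytotoxic solvent blend.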
# [7] = tested on: barnyardgrass (Echinochloa crus-galli); test: Test A postemergence, barnyardgrass; conditions: Postemergence
# Outline: as §2
# kochia (Bassia scoparia) [8] = test: Test A postemergence, kochia; conditions: Postemergence
# Outline: as §1
# [9] = tested on: ragweed (common ragweed, Ambrosia artemisiifolia); test: Test A postemergence, ragweed; conditions: Postemergence
# Outline: as §1
# [10] = tested on: Ryegrass, Italian (Italian ryegrass, Lolium multiflorum); test: Test A postemergence, Ryegrass, Italian; conditions: Postemergence
# Outline: as §1
# [11] = tested on: Foxtail, Giant (giant foxtail, Setaria faberi); test: Test A postemergence, Foxtail, Giant; conditions: Postemergence
# Outline: as §1
# [12] = tested on: pigweed (Amaranthus retroflexus); test: Test A postemergence, pigweed; conditions: Postemergence
# Outline: as §1
# [13] = tested on: wheat (Triticum aestivum); test: Test A postemergence, wheat; conditions: Postemergence
# Outline: as §2
# corn (Zea mays) = test: Test A postemergence, corn; conditions: Postemergence
# Outline: as §1
# [14] = tested on: blackgrass (Alopecurus myosuroides); test: Test A postemergence, blackgrass; conditions: Postemergence
# Outline: as §1
# [15] = tested on: galium (catchweed bedstraw, Galium aparine); test: Test A postemergence, galium; conditions: Postemergence
# Outline: as §2
# [16] = 125 g ai/ha, visual injury approx. 10 days, 0 to 100 scale (0 no effect, 100 complete control)
# [17] = 500 g ai/ha, visual injury, 0 to 100 scale (0 no effect, 100 complete control), approx. 10 days
# [18] = 31 g ai/ha, visual injury, approx. 10 days
# [19] = 31 g ai/ha, visual injury on 0 to 100 scale (0 no effect, 100 complete control), approx. 10 days
# [20] = 125 g ai/ha, 0 to 100 scale (0 no effect, 100 complete control)
structure (smiles),measurement,setting,value
COc1cc(-c2cc(N(S(=O)(=O)C(F)(F)F)S(=O)(=O)C(F)(F)F)c(C)cc2C)c(=O)n(C)n1 [Compound 35],Barnyardgrass plant response rating,[1],70
same,"Plant response rating, Barnyardgrass",[1]; 500 g ai/ha,90
same,Kochia plant response rating,kochia (Bassia scoparia) [2],0
same,"Plant response rating, Kochia",kochia (Bassia scoparia) [2]; 500 g ai/ha,20
same,Ragweed plant response rating,[3],20
same,"Plant response rating, Ragweed",[3]; 500 g ai/ha,80
same,"Ryegrass, Italian plant response rating",[4],40
same,"Plant response rating, Ryegrass, Italian",[4]; 500 g ai/ha,50
same,"Foxtail, Giant plant response rating",[5],60
same,"Plant response rating, Foxtail, Giant",[5]; 500 g ai/ha,90
same,Pigweed plant response rating,[6],50
same,"Plant response rating, Pigweed",[6]; 500 g ai/ha,80
same,"Plant response rating, Barnyardgrass",[7]; [16],0
same,"Plant response rating, Barnyardgrass",[7]; [17],80
same,"Plant response rating, Kochia",kochia (Bassia scoparia) [8]; [16],0
same,"Plant response rating, Kochia",kochia (Bassia scoparia) [8]; [17],10
same,"Plant response rating, Ragweed",[9]; [16],0
same,"Plant response rating, Ragweed",[9]; [17],40
same,"Plant response rating, Ryegrass, Italian",[10]; [16],0
same,"Plant response rating, Ryegrass, Italian",[10]; [17],40
same,"Plant response rating, Foxtail, Giant",[11]; [16],0
same,"Plant response rating, Foxtail, Giant",[11]; [17],10
same,"Plant response rating, Pigweed",[12]; [16],30
same,"Plant response rating, Pigweed",[12]; [17],60
same,"Plant response rating, Wheat",[13]; [16],0
same,"Plant response rating, Wheat",[13]; [17],40
same,"Plant response rating, Corn",corn (Zea mays); [16],0
same,"Plant response rating, Corn",corn (Zea mays); [17],0
same,"Plant response rating, Blackgrass",[14]; [16],20
same,"Plant response rating, Blackgrass",[14]; [17],30
same,"Plant response rating, Galium",[15]; [16],60
same,"Plant response rating, Galium",[15]; [17],70
COc1cnn(-c2cc(N(S(=O)(=O)C(F)(F)F)S(=O)(=O)C(F)(F)F)c(C)cc2C)c(=O)c1OC [Compound 40],Barnyardgrass plant response rating,[1],90
same,"Plant response rating, Barnyardgrass",[1]; 500 g ai/ha,90
same,Kochia plant response rating,kochia (Bassia scoparia) [2],80
same,"Plant response rating, Kochia",kochia (Bassia scoparia) [2]; 500 g ai/ha,80
same,Ragweed plant response rating,[3],50
same,"Plant response rating, Ragweed",[3]; 500 g ai/ha,50
same,"Ryegrass, Italian plant response rating",[4],30
same,"Plant response rating, Ryegrass, Italian",[4]; 500 g ai/ha,80
same,"Foxtail, Giant plant response rating",[5],90
same,"Plant response rating, Foxtail, Giant",[5]; 500 g ai/ha,100
same,Pigweed plant response rating,[6],100
same,"Plant response rating, Pigweed",[6]; 500 g ai/ha,100
same,"Plant response rating, Barnyardgrass",[7]; [16],10
same,"Plant response rating, Barnyardgrass",[7]; [17],40
same,"Plant response rating, Kochia",kochia (Bassia scoparia) [8]; [16],10
same,"Plant response rating, Kochia",kochia (Bassia scoparia) [8]; [17],20
same,"Plant response rating, Ragweed",[9]; [16],40
same,"Plant response rating, Ragweed",[9]; [17],40
same,"Plant response rating, Ryegrass, Italian",[10]; [16],30
same,"Plant response rating, Ryegrass, Italian",[10]; [17],60
same,"Plant response rating, Foxtail, Giant",[11]; [16],0
same,"Plant response rating, Foxtail, Giant",[11]; [17],10
same,"Plant response rating, Pigweed",[12]; [16],0
same,"Plant response rating, Pigweed",[12]; [17],30
same,"Plant response rating, Wheat",[13]; [16],0
same,"Plant response rating, Wheat",[13]; [17],40
same,"Plant response rating, Corn",corn (Zea mays); [16],0
same,"Plant response rating, Corn",corn (Zea mays); [17],0
same,"Plant response rating, Blackgrass",[14]; [16],10
same,"Plant response rating, Blackgrass",[14]; [17],10
same,"Plant response rating, Galium",[15]; [16],20
same,"Plant response rating, Galium",[15]; [17],70
Cc1cc(C)c(N(S(=O)(=O)C(F)(F)F)S(=O)(=O)C(F)(F)F)cc1N1CC2(CCOCC2)OC1=O [Compound 157],"Plant response rating, Barnyardgrass",[1]; [18],30
same,Barnyardgrass plant response rating,[1],100
same,"Plant response rating, Kochia",kochia (Bassia scoparia) [2]; [18],50
same,Kochia plant response rating,kochia (Bassia scoparia) [2],90
same,"Plant response rating, Ragweed",[3]; [18],40
same,Ragweed plant response rating,[3],90
same,"Plant response rating, Ryegrass, Italian",[4]; [18],40
same,"Ryegrass, Italian plant response rating",[4],60
same,"Plant response rating, Foxtail, Giant",[5]; [18],80
same,"Foxtail, Giant plant response rating",[5],100
same,"Plant response rating, Pigweed",[6]; [18],100
same,Pigweed plant response rating,[6],100
same,"Plant response rating, Barnyardgrass",[7]; [19],20
same,"Plant response rating, Barnyardgrass",[7]; [20],60
same,"Plant response rating, Kochia",kochia (Bassia scoparia) [8]; [19],10
same,"Plant response rating, Kochia",kochia (Bassia scoparia) [8]; [20],70
same,"Plant response rating, Ragweed",[9]; [19],70
same,"Plant response rating, Ragweed",[9]; [20],90
same,"Plant response rating, Ryegrass, Italian",[10]; [19],0
same,"Plant response rating, Ryegrass, Italian",[10]; [20],30
same,"Plant response rating, Foxtail, Giant",[11]; [19],10
same,"Plant response rating, Foxtail, Giant",[11]; [20],30
same,"Plant response rating, Pigweed",[12]; [19],90
same,"Plant response rating, Pigweed",[12]; [20],100
same,"Plant response rating, Wheat",[13]; [19],0
same,"Plant response rating, Wheat",[13]; [20],0
same,"Plant response rating, Corn",corn (Zea mays); [19],20
same,"Plant response rating, Corn",corn (Zea mays); [20],20
same,"Plant response rating, Blackgrass",[14]; [19],30
same,"Plant response rating, Blackgrass",[14]; [20],30
same,"Plant response rating, Galium",[15]; [19],90
same,"Plant response rating, Galium",[15]; [20],100
